≈ marks a conversion by molar mass, not a printed value. Calls of active or inactive are those of the source. The calls are words filed in the database; no cut-off is given here.
Columns and labels:
[1] = biological target: T1, Cannabinoid receptor 1 (Homo sapiens, UniProt P21554); type: functional, cell-based, Sf9
Description: Antagonist activity at human CB1 receptor expressed in SF9 cells assessed as inhibition of CP-55940-stimulated GTPgammaS binding

[2] = physchem; conditions: aqueous, pH 7.4
Description: Aqueous solubility at pH 7.4

[3] = biological target: CYP3A4 (Homo sapiens, UniProt P08684); test: in vitro; conditions: human liver microsomes, probe midazolam
[4] = biological target: Rattus norvegicus; test: Ex vivo receptor occupancy by displacement of [3H]CP-55940 from rat CB1 receptor in po dosed rat cerebellum membrane after 3 hrs; type: functional, organism-based
[5] = species on record: Rattus norvegicus; test: Decrease in blood insulin level in rat after 18 days; type: functional, organism-based
[6] = Drug level at Tmax in rat brain at 5 mg/kg, po qd after 19 days; type: ADME, organism-based; parameters: dose 5 mg/kg, route oral; conditions: read-out: Drug uptake
[7] = Drug level in rat plasma 1 mg/kg, po qd after 19 days measured 17 hrs after last dose; type: ADME, organism-based; parameters: dose 1 mg/kg, route oral; conditions: read-out: Drug uptake
[8] = species on record: Homo sapiens; test: Selectivity for human CB1 receptor over human CB2 receptor
[9] = species on record: Rattus norvegicus; test: Decrease in blood glucose level in rat after 18 days; type: functional, organism-based
[10] = Drug level in rat brain at 5 mg/kg, po qd after 19 days measured 17 hrs after last dose; type: ADME, organism-based; parameters: dose 5 mg/kg, route oral; conditions: read-out: Drug uptake
[11] = biological target: Cannabinoid receptor 2 (Homo sapiens, UniProt P34972)
Description: Antagonist activity at human CB2 receptor in SF9 cells assessed as inhibition of CP-55940-stimulated GTPgammaS binding

[12] = biological target: Cannabinoid receptor 1 (Rattus norvegicus, UniProt P20272)
Description: Antagonist activity at rat CB1 receptor in SF9 cells assessed as inhibition of CP-55940-stimulated GTPgammaS binding

[13] = system: Homo sapiens; test: Ex vivo receptor occupancy by displacement of [3H]CP-55940 from human CB1 receptor in […] after 3 hrs; type: functional; conditions: read-out: ID50 (the source's name)
[14] = system: Rattus norvegicus; test: Reduction in cumulative food intake in subchronic diet-induced rat at 1 mg/kg, po qd after 18 days relative to control; type: functional; parameters: scale not given: the % may be the effect or the level left
[15] = biological target: T1, Cannabinoid receptor 1; type: functional, cell-based, Sf9; remark: listed apart in the source
Description: Inverse agonist at human CB1 receptor expressed in SF9 cells assessed as decrease in GTPgammaS level

[16] = species on record: Rattus norvegicus; test: animal or person; conditions: po, 24 h, read-out: INH
Description: Inhibition of food intake in overnight fed diet-induced obesity rat model at 5 mg/kg, po after 24 hrs relative to control

[17] = system: Rattus norvegicus; test: Reduction in body weight in subchronic diet-induced rat at 5 mg/kg, po qd after 18 days relative to control; type: functional; parameters: scale not given: the % may be the effect or the level left
[18] = species on record: Rattus norvegicus; test: Decrease in blood leptin level in rat after 18 days; type: functional, organism-based
[19] = Drug level at Tmax in rat brain at 1 mg/kg, po qd after 19 days; type: ADME, organism-based; parameters: dose 1 mg/kg, route oral; conditions: read-out: Drug uptake
[20] = Drug level in rat brain at 1 mg/kg, po qd after 19 days measured 17 hrs after last dose; type: ADME, organism-based; parameters: dose 1 mg/kg, route oral; conditions: read-out: Drug uptake
[21] = system: Rattus norvegicus; test: Reduction in cumulative food intake in subchronic diet-induced rat at 5 mg/kg, po qd after 18 days relative to control; type: functional; parameters: scale not given: the % may be the effect or the level left
[22] = Drug level in rat plasma 5 mg/kg, po qd after 19 days measured 17 hrs after last dose; type: ADME, organism-based; parameters: dose 5 mg/kg, route oral; conditions: read-out: Drug uptake
[23] = Drug level at Tmax in rat plasma at 1 mg/kg, po qd after 19 days; type: ADME, organism-based; parameters: dose 1 mg/kg, route oral; conditions: read-out: Drug uptake
[24] = system: Rattus norvegicus; test: Reduction in body weight in subchronic diet-induced rat at 1 mg/kg, po qd after 18 days relative to control; type: functional; parameters: scale not given: the % may be the effect or the level left
[25] = Drug level at Tmax in rat plasma at 5 mg/kg, po qd after 19 days; type: ADME, organism-based; parameters: dose 5 mg/kg, route oral; conditions: read-out: Drug uptake
[26] = system: Rattus norvegicus; test: Inhibition of food intake in overnight fed diet-induced obesity rat model at 10 mg/kg, po after 24 hrs relative to control; type: functional

Sequence of CYP3A4 (P08684 whole entry): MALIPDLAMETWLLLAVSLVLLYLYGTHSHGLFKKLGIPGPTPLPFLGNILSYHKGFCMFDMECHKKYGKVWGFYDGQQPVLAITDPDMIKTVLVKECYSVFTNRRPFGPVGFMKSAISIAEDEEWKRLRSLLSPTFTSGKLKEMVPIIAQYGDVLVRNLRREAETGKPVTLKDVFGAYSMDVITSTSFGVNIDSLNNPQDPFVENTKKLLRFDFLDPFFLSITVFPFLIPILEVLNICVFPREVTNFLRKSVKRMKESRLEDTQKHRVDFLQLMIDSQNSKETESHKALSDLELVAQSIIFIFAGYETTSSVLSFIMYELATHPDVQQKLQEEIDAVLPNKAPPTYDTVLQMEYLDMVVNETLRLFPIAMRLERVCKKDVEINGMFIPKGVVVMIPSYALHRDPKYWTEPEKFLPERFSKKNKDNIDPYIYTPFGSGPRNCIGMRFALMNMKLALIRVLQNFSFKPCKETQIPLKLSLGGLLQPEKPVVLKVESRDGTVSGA
T1 sequence (P21554 whole entry): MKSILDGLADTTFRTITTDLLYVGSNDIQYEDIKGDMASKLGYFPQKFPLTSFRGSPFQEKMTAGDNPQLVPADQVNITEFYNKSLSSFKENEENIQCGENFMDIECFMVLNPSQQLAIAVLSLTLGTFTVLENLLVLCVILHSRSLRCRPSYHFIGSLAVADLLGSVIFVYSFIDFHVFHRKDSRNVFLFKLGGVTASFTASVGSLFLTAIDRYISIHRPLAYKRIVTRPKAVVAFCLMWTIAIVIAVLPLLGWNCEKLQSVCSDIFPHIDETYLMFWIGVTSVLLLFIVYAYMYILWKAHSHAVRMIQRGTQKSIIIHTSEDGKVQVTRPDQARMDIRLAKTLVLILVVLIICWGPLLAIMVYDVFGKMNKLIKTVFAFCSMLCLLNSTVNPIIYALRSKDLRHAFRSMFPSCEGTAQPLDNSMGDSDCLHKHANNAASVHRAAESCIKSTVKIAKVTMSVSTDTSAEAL
Sequence of Cannabinoid receptor 2 (P34972 whole entry): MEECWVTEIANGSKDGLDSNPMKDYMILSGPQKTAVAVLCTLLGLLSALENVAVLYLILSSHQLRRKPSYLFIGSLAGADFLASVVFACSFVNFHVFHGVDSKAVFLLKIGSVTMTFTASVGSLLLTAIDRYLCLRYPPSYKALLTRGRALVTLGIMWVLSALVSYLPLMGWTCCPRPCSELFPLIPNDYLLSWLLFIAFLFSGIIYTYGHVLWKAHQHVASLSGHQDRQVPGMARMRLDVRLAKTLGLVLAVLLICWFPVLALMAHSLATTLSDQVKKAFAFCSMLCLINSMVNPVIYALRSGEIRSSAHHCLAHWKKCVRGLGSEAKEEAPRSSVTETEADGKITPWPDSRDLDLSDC
Sequence of Cannabinoid receptor 1 (Rattus norvegicus, UniProt P20272) (P20272 whole entry): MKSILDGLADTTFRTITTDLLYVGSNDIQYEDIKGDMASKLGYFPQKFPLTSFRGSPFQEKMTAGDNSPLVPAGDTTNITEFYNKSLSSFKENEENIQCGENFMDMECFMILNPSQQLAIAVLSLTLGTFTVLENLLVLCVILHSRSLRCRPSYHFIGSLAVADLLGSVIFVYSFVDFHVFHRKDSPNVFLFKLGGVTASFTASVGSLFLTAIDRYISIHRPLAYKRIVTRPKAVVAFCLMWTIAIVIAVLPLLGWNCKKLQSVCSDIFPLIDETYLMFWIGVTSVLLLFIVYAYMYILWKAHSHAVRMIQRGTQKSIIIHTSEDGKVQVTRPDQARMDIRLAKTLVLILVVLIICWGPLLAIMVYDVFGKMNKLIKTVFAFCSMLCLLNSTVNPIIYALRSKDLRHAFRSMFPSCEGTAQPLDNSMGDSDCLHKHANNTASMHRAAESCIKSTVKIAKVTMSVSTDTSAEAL

`CCNC1(C(N)=O)CCN(c2cnc(-c3ccc(Cl)cc3)c(-c3ccc(C#N)cc3)n2)CC1` showed a Ki [1] of 32.3 nM and a solubility [2] of 36 µg/mL (≈ 78.1 µM).

`CCNC1(C(N)=O)CCN(c2cnc(-c3ccc(Cl)cc3)c(-c3ccnc(Cl)c3)n2)CC1` gave an inhibition at 5 µM [3] of 54%, a Ki [1] of 0.67 nM and a solubility [2] of 21.8 µg/mL (≈ 46.3 µM).

For `CCC(=O)NC1CCN(c2cnc(-c3ccc(C(F)(F)F)cc3)c(-c3ccncc3Cl)n2)CC1`, the inhibition at 5 µM [3] was 11%, the Ki [1] was 0.8 nM and the solubility [2] was 24 µg/mL (≈ 49 µM).

`CCNC1(C(N)=O)CCN(c2cnc(-c3ccc(C(F)(F)F)cc3)c(-c3ccnc(Cl)c3)n2)CC1` showed an inhibition at 5 µM [3] of under 5%, a Ki [1] of 0.87 nM and a solubility [2] of 25.5 µg/mL (≈ 50.5 µM).

Compound `CCNC1(C(N)=O)CCN(c2cnc(-c3ccc(OCC)cc3)c(-c3ccc(OCC)cc3)n2)CC1` has an inhibition at 5 µM [3] of under 5% and a Ki [1] of 2.84 nM.

In the case of `CC(C)C(=O)NC1CCN(c2cnc(-c3ccc(C(F)(F)F)cc3)c(-c3ccncc3Cl)n2)CC1`, the Ki [4] is reported as 4.4 nM, the Activity [5] is reported as “Active” and the concentration at 456 h [6] is reported as 630 ng/mL. The concentration at 17 h [7] was 44.2 ng/mL, the Ratio Ki [8] was over 2000 and the Activity [9] was “Active”. For the same compound, the concentration at 17 h [10] was 253 ng/mL, the Ki [11] was 4940 nM and the inhibition at 5 µM [3] was under 5%. For the same compound, the Ki [12] was 0.41 nM, the ED50 [13] was 0.3 mg/kg and the Activity [14] was 18.8%. The IC50 [15] was 0.54 nM, the inhibition in vivo at 5 mg/kg [16] was 80% and the Activity [17] was 8.5%. For the same compound, the Activity [18] was “Dose-dependent effect”, the concentration at 456 h [19] was 235 ng/mL and the Ki [1] was 0.24 nM. It also gave a concentration at 17 h [20] of 110 ng/mL, an Activity [21] of 27.6% and a concentration at 17 h [22] of 142 ng/mL. For the same compound, the solubility [2] was 4.5 µg/mL (≈ 8.93 µM), the Cmax [23] was 121 ng/mL and the Activity [24] was 4.8%. For the same compound, the Cmax [25] was 346 ng/mL.

Compound `CCNC1(C(N)=O)CCN(c2cnc(-c3ccc(OCC)cc3)c(-c3ccccc3Cl)n2)CC1` has an inhibition at 5 µM [3] of 10%, a Ki [1] of 15 nM and a solubility [2] of 1.2 µg/mL (≈ 2.5 µM).

Work on `CCNC1(C(N)=O)CCN(c2cnc(-c3ccc(Cl)cc3)c(-c3ccncc3)n2)CC1` yielded an inhibition at 5 µM [3] of 71%, a Ki [1] of 9.81 nM and a solubility [2] of 74.9 µg/mL (≈ 171 µM).

With `CCNC1(C(N)=O)CCN(c2cnc(-c3ccc(F)cc3)c(-c3ccc(Cl)cc3Cl)n2)CC1` the inhibition at 5 µM [3] was 20.5% and the Ki [1] was 1.75 nM.

For `Cc1c(C(=O)NN2CCCCC2)nn(-c2ccc(Cl)cc2Cl)c1-c1ccc(Cl)cc1` [RIMONABANT], the Ki [4] was 1.1 nM, the Activity [5] was “Active” and the concentration at 456 h [6] was 318 ng/mL. For the same compound, the Activity [9] was “Active”, the concentration at 17 h [10] was 65 ng/mL and the inhibition at 5 µM [3] was under 5%. It also gave an ED50 [13] of 0.5 mg/kg, an inhibition in vivo at 5 mg/kg [16] of 73% and an Activity [17] of 4.1%. The Activity [21] was 13.8%, the concentration at 17 h [22] was 3 ng/mL and the solubility [2] was 0.3 µg/mL (≈ 0.647 µM). It also gave a Cmax [25] of 346 ng/mL.

`CCNC1(C(N)=O)CN(c2cnc(-c3ccc(C(F)(F)F)cc3)c(-c3ccnc(Cl)c3)n2)C1` showed a Ratio Ki [8] of over 2000, a Ki [11] of over 50000 nM and an inhibition at 5 µM [3] of under 5%. It also gave a Ki [12] of 2.06 nM, an IC50 [15] of 3.07 nM and a Ki [1] of 1.2 nM. The inhibition in vivo at 10 mg/kg [26] was 58% and the solubility [2] was 38 µg/mL (≈ 79.7 µM).

With `O=S1(=O)CCN(c2cnc(-c3ccc(C(F)(F)F)cc3)c(-c3ccncc3Cl)n2)CC1` the Ratio Ki [8] was over 2000, the Ki [11] was 1900 nM and the inhibition at 5 µM [3] was under 5%. It also gave a Ki [12] of 0.83 nM, an IC50 [15] of 4.2 nM and a Ki [1] of 0.83 nM. For the same compound, the inhibition in vivo at 10 mg/kg [26] was 71% and the solubility [2] was 23 µg/mL (≈ 49.1 µM).

`CCNC1(C(N)=O)CCN(c2cnc(-c3ccc(Cl)cc3)c(-c3ccc(Cl)cc3Cl)n2)CC1` gave an inhibition at 5 µM [3] of under 5% and a Ki [1] of 0.91 nM.

With `CCNC1(C(N)=O)CCN(c2cnc(-c3ccc(Cl)cc3)c(-c3ccccc3Cl)n2)CC1` the inhibition at 5 µM [3] was 9.7%, the Ki [1] was 1.66 nM and the solubility [2] was 1.25 µg/mL (≈ 2.66 µM).

From ChEMBL document CHEMBL1150322, “Aminopyrazine CB1 receptor inverse agonists” (Bioorg Med Chem Lett, 2008)
